Assays:
[1] = test system: head, neck and gastric carcinomas; settings: assumed the same for lung carcinomas; cited from earlier work
[2] = test system: mitochondrial respiration; settings: cisplatin-treated cells; cited from earlier work
[3] = Cisplatin blood concentration versus time after EBUS-TBNI into a patient's lung tumor, fitted with Eq. 14; format: in vivo, human; settings: fit of Eq. 14 to blood concentrations after five 8-mg intratumoral injections
Procedure: Combining Eqs. 2 and 12 gives:
The fitting was achieved by optimizing the values of the two free parameters (kf+ki) and Vf using a gradient-based algorithm to minimize the cost function: […]
Ultrasound guidance was used to attempt to distribute the 5 injections evenly throughout the tumor over an interval of 18 min.

N.N.[Cl][Pt][Cl] [cisplatin]
ki, rate constant of flow into the intracellular space [1]: 0.000105 s⁻¹ | concentration above which stepwise decrements in mitochondrial respiration were seen [2]: above 5.0 uM | ki+kf, sum of rate constants out of the extracellular space [3]: 0.000251 s⁻¹

Source: US20220362577A1, “METHODS FOR GUIDING DIRECT DELIVERY OF DRUGS AND/OR ENERGY TO LESIONS USING COMPUTATIONAL MODELING” (University of Vermont and State Agricultural College, priority 2019, published 2022)
